Measured values reported in patent US10137116B2, “Benzimidazole sulfide derivatives for the treatment or prevention of tuberculosis” (priority 2015, dated 2018).
Values after ≈ are worked out from the molar mass of the structure shown. “Also recorded” adds a separate entry of the source.

What was measured:
[1] = tested on: M. tuberculosis 59744; experiment: microbe, parasite or virus in culture; assay type: cell-based; details: Mycobacterium tuberculosis
[2] = tested on: M. tuberculosis MB3649; experiment: microbe, parasite or virus in culture; assay type: cell-based; details: Mycobacterium tuberculosis
[3] = tested on: M. tuberculosis MI1020; experiment: microbe, parasite or virus in culture; assay type: cell-based; details: Mycobacterium tuberculosis
[4] = tested on: M. tuberculosis 43061; experiment: microbe, parasite or virus in culture; assay type: cell-based; details: Mycobacterium tuberculosis
[5] = tested on: M. tuberculosis 45776; experiment: microbe, parasite or virus in culture; assay type: cell-based; details: Mycobacterium tuberculosis
[6] = tested on: M. tuberculosis 49975; experiment: microbe, parasite or virus in culture; assay type: cell-based; details: Mycobacterium tuberculosis
[7] = tested on: Mtb strains; experiment: MIC, summary statement for Mtb strains; assay type: cell-based; details: Mycobacterium tuberculosis
[8] = tested on: drug resistant isolates; experiment: microbe, parasite or virus in culture; assay type: cell-based, M. tuberculosis; details: Mycobacterium tuberculosis
[9] = tested on: Mtb spontaneous-resistant mutants 1 to 3 / rMtb-L176P; assay type: cell-based, Mycobacterium tuberculosis
[10] = tested on: Mtb-T313A; assay type: cell-based, Mycobacterium tuberculosis

Row | Structure (SMILES) | MIC [1] [µM] | MIC [2] [µM] | MIC [3] [µM] | MIC [4] [µM] | MIC [5] [µM] | MIC [6] [µM] | MIC [7] [µM] | MIC [8] [µM] | resistance of mutants against compound [9] | activity against T313A mutant [10]
1 | Cc1c(OCC(F)(F)F)ccnc1CSc1nc2ccccc2[nH]1 [LPZS, Lanzoprazole sulfide] | 0.78 (≈ 0.276 µg/mL) | 1.37 (≈ 0.484 µg/mL) | 0.94 (≈ 0.332 µg/mL) | 0.49 (≈ 0.173 µg/mL) | 0.52 (≈ 0.184 µg/mL) | 1.06 (≈ 0.375 µg/mL) | < 2 | < 2 | stable phenotypic resistance | active; also recorded: does not confer high level resistance
2 | CCc1nc2ccc(Cl)cn2c1C(=O)NCc1ccc(N2CCC(c3ccc(OC(F)(F)F)cc3)CC2)cc1 [Q203, reference compound] |  |  |  |  |  |  |  |  |  | resistant; also recorded: high level resistance
